Measurements from patent publication US9334263B2, “Compositions useful for treating disorders related to kit” (BLUEPRINT MEDICINES CORPORATION, priority 2013, dated 2016).

What was measured:
[1] = molecular target: T1, Kit D816V (HMC1.2 cells, Kit V560G and D816V) (Homo sapiens, UniProt P10721, D816V/V560G); experiment: HMC1.2 autophosphorylation assay (AlphaLISA, phospho-Y719 c-Kit); format: cell-based; settings: Kit autophosphorylation at tyrosine 719, 90 minutes, read-out: Cellular Activity
T1 construct: endogenous in cells; host or cells: HMC1.2 cells
T1 sequence (P10721 26-976 V560G/D816V): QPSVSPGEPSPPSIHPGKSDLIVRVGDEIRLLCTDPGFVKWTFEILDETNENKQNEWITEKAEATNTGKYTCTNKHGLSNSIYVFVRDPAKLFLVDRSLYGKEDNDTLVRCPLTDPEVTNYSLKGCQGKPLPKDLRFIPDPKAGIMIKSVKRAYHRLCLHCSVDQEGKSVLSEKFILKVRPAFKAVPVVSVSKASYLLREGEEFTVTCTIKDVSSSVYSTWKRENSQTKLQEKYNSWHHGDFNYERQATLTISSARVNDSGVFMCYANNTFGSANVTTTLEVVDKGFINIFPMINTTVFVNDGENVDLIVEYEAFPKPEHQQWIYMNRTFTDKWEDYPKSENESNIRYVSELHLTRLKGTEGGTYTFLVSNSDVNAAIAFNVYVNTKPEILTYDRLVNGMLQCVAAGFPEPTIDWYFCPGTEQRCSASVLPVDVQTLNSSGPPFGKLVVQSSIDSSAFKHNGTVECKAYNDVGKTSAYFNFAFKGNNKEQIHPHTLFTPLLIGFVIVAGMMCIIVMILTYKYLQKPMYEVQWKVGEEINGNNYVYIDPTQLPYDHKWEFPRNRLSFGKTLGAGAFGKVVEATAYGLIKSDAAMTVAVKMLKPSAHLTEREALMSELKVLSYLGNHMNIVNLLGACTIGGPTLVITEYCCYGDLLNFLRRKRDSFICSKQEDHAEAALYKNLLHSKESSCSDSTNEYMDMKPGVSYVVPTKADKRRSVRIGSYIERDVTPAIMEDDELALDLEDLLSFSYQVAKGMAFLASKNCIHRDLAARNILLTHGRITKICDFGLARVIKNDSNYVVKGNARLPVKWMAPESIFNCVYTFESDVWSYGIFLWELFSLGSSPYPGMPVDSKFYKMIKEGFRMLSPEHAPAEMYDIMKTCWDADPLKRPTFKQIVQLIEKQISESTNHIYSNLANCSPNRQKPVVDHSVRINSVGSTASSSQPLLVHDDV
Method: HMC1.2 Autophosphorylation Assay:
10,000 HMC1.2 cells were incubated in 22 ul culture media (phenol-red free IMDM, no serum) in each well of a 384-well plate and serum starved overnight in a tissue culture incubator (5% CO2, 37° C.). A 10-point dose concentration series of compound (25 uM-95.4 pM) were then added to the cells in a volume of 3.1 ul to each well (0.25% DMSO final concentration). After 90 minutes, 6 ul of 5× AlphaLISA Lysis Buffer (Perkin Elmer) supplemented with a protease and phosphatase inhibitor cocktail (Cell Signaling Technologies) was added to each well and shaken at 450 rpm for 15 minutes at 4° C. 10 ul of phospho-Y719 c-Kit and total c-Kit antibodies (15 nM final concentration, Cell Signaling Technologies) and 50 ug/ml AlphaLISA rabbit acceptor beads (Perkin Elmer) were added to each well and shaken at 300 rpm at room temperature for 2 hours. 10 ul of 100 ug/ml streptavidin donor beads (Perkin Elmer) were added to each well, blocked from light with aluminum adhesive and shaken at 300 rpm at room temperature for 2 hours. Fluorescence signal was obtained on Envision (Perkin Elmer) by AlphaScreen 384 well HTS protocol.
This cell line contains Kit mutated at positions V560G and D816V resulting in constitutive activation of the kinase. The following compounds were tested in an assay to measure direct inhibition of Kit D816V kinase activity by assaying Kit autophosphorylation at tyrosine 719 on the Kit protein.

D816V Kit = molecular target: T2, D816V Kit (Homo sapiens, UniProt P10721, D816V); experiment: Kit D816V assay at Km (Caliper electrophoretic mobility shift); format: biochemical; settings: 15 uM ATP, 25 C, 90 minutes
T2 construct: purchased Carna Bioscience 08-156
T2 sequence (P10721 26-976 D816V): as the sequence (P10721 26-976 V560G/D816V) above, with G535V counted along it
Method: In order to assess the activity of chemical compounds against the relevant kinase of interest, the Caliper LifeSciences electrophoretic mobility shift technology platform is used. Fluorescently labeled substrate peptide is incubated in the presence of kinase and ATP so that a […] proportion of the peptide is phosphorylated. At the end of the reaction, the mix of phosphorylated (product) and non-phosphorylated (substrate) peptides are passed through the microfluidic system of the Caliper EZ Reader 2, under an applied potential difference. The presence of the phosphate group on the product peptide provides a difference in mass and charge between those of the substrate peptide, resulting in a separation of the substrate and product pools in the sample. As the pools pass a LEDS within the instrument, these pools are detected and resolved as separate peaks. The ratio between these peaks therefore reflects the activity of the chemical matter at that concentration in that well, under those conditions.
The reaction was stopped by the addition of 70 ul of Stop buffer (100 mM HEPES pH 7.5, 0.015% Brij 35, 35 mM EDTA and 0.2% of Coating Reagent 3 (Caliper Lifesciences)). The plate was then read on a Caliper EZReader 2 (protocol settings: −1.9 psi, upstream voltage −700, downstream voltage −3000, post sample sip 35 s).

IC50 [1] [nM] | IC50 (D816V Kit) [nM] | Structure (SMILES)
1000 to 10000 | 1.01 to 10 | Fc1cc(N2CCNCC2)ccc1Nc1ncnc(N2CCN(c3ncc(Cc4ccccc4)cn3)CC2)n1 [Compound 175]
10 to 100 | 1.01 to 10 | Fc1ccc(Cc2cnc(N3CCN(c4ncnc(Nc5ccc6c(c5)CNCC6)n4)CC3)nc2)cc1F [Compound 139]
10 to 100 | 1.01 to 10 | c1ccc(Cc2cnc(N3CCN(c4ncnc(Nc5cnn(C6CNC6)c5)n4)CC3)nc2)cc1 [Compound 27]
10 to 100 | 1.01 to 10 | OC[C@H](O)COc1ccc(Nc2ncnc(N3CCN(c4ncc(Cc5ccccc5)cn4)CC3)n2)cc1 [Compound 131]
10 to 100 | < 1 | CC(C)(O)[C@@H](O)c1ccc(Nc2ncnc(N3CCN(c4ncc(Cc5ccccc5)cn4)CC3)n2)cc1 [Compound 122]
10 to 100 | 1.01 to 10 | c1cncc(Cc2cnc(N3CCN(c4ncnc(Nc5ccc6c(c5)CNCC6)n4)CC3)nc2)c1 [Compound 45]
10 to 100 | 1.01 to 10 | Cc1c(Nc2ncnc(N3CCN(c4ncc(Sc5ccccc5F)cn4)CC3)n2)cnn1C[C@H](C)O [Compound 154]
10 to 100 | < 1 | CC(C)(c1ccc(F)cc1)c1cnc(N2CCN(c3ncnc(Nc4cnn(C[C@@H]5CNCCO5)c4)n3)CC2)nc1 [Compound 267]
10 to 100 | 1.01 to 10 | OC1(c2ccc(Nc3ncnc(N4CCN(c5ncc(Cc6ccccc6)cn5)CC4)n3)cc2)COC1 [Compound 79]
10 to 100 | < 1 | C[C@@H](O)CNc1ccc(Nc2ncnc(N3CCN(c4ncc(Cc5ccccc5)cn4)CC3)n2)cc1 [Compound 82]
< 10 | < 1 | Fc1ccccc1Cc1cnc(N2CCN(c3ncnc(Nc4cnn(C[C@@H]5CNCCO5)c4)n3)CC2)cn1 [Compound 198]
10 to 100 | < 1 | C[C@](O)(c1ccc(F)cc1)c1cnc(N2CCN(c3ncnc(Nc4cnn(C[C@@H]5CNCCO5)c4)n3)CC2)nc1 [Compound 269]
10 to 100 | 1.01 to 10 | C[C@H](O)CNc1ccc(Nc2ncnc(N3CCN(c4ncc(Sc5ccccc5F)cn4)CC3)n2)cc1 [Compound 205]
< 10 | < 1 | Nc1nc(N2CCN(c3ncnc(Nc4ccc5c(c4)CN(CCO)CC5)n3)CC2)ncc1Cc1ccccc1 [Compound 229]
10 to 100 | 1.01 to 10 | C[C@@H](O)Cn1cc(Nc2ncnc(N3CCN(c4ncc(Cc5ccccc5)cn4)CC3)n2)cn1 [Compound 32]
< 10 | 1.01 to 10 | O[C@H]1CCCN(c2ccc(Nc3ncnc(N4CCN(c5ncc(Cc6ccc(F)cc6)cn5)CC4)n3)cc2)C1 [Compound 240]
10 to 100 | 1.01 to 10 | CN1CCNC[C@@H]1Cn1cc(Nc2ncnc(N3CCN(c4ncc(Cc5ccccc5)cn4)CC3)n2)cn1 [Compound 177]
10 to 100 | 10 to 100 | c1ccc(Cc2cnc(N3CCN(c4ncnc(Nc5ccc6c(c5)CN(C5CC5)CC6)n4)CC3)nc2)cc1 [Compound 145]
10 to 100 | 1.01 to 10 | COc1cccc(Cc2cnc(N3CCN(c4ncnc(Nc5cnn(C[C@@H]6CNCCO6)c5)n4)CC3)nc2)c1 [Compound 249]
100 to 1000 | 1.01 to 10 | Fc1cccc(Sc2cnc(N3CCN(c4ncnc(Nc5cnn(C[C@@H]6CNCCO6)c5)n4)CC3)nc2)c1 [Compound 257]
10 to 100 | < 1 | Cc1c(Nc2ncnc(N3CCN(c4ncc(Cc5ccccc5F)cn4)CC3)n2)cnn1C[C@@H]1CNCCO1 [Compound 272]
10 to 100 | 1.01 to 10 | CCN1CCO[C@H](Cn2cc(Nc3ncnc(N4CCN(c5ncc(Cc6ccccc6)cn5)CC4)n3)cn2)C1 [Compound 241]
10 to 100 | 1.01 to 10 | C[C@@H]1CN(c2ncnc(Nc3ccc(N4CCC[C@@H](O)C4)cc3)n2)CCN1c1ncc(Cc2ccccc2)cn1 [Compound 222]
10 to 100 | < 1 | CC(C)(O)Cn1cc(Nc2ncnc(N3CCN(c4ncc(C(C)(C)c5ccc(F)cc5)cn4)CC3)n2)cn1 [Compound 201]

IC50 [1] [nM] | IC50 (D816V Kit) [nM] | Structure (SMILES)
1000 to 10000 | 1.01 to 10 | Brc1cnc(N2CCN(c3ncnc(Nc4cnn(C[C@@H]5CNCCO5)c4)n3)CC2)nc1 [Compound 91]
10 to 100 | 1.01 to 10 | Cc1c(Nc2ncnc(N3CCN(c4ncc(Sc5ccc(F)cc5)cn4)CC3)n2)cnn1C[C@@H]1CNCCO1 [Compound 273]
10 to 100 | < 1 | Fc1ccccc1Sc1cnc(N2CCN(c3ncnc(Nc4cnn(C[C@@H]5CNCCO5)c4)n3)CC2)nc1 [Compound 255]
10 to 100 | < 1 | c1ccc(Cc2cnc(N3CCN(c4ncnc(Nc5ccc(O[C@@H]6CCNC6)cc5)n4)CC3)nc2)cc1 [Compound 107]
10 to 100 | < 1 | OC[C@@H](O)c1ccc(Nc2ncnc(N3CCN(c4ncc(Cc5ccc(F)cc5)cn4)CC3)n2)cc1 [Compound 92]
10 to 100 | < 1 | Fc1ccc(Cc2cnc(N3CCN(c4ncnc(Nc5ccc6c(c5)CNCC6)n4)CC3)nc2)c(F)c1 [Compound 138]
10 to 100 | < 1 | Cc1c(Nc2ncnc(N3CCN(c4ncc(Cc5ccccc5)cn4)[C@H](C)C3)n2)cnn1C[C@@H]1CNCCO1 [Compound 242]
10 to 100 | < 1 | CC(O)(c1ccccc1)c1cnc(N2CCN(c3ncnc(Nc4cnn(C[C@@H]5CNCCO5)c4)n3)CC2)nc1 (stereo partly drawn) [Compound 250]
1000 to 10000 | 1.01 to 10 | COc1nc(N2CCN(c3ncnc(Nc4cnn(C[C@@H]5CNCCO5)c4)n3)CC2)ncc1Cc1ccccc1 [Compound 246]
10 to 100 | < 1 | OC[C@@H](O)Cn1cc(Nc2ncnc(N3CCN(c4ncc(Cc5ccccc5)cn4)CC3)n2)cn1 [Compound 65]
10 to 100 | < 1 | OC[C@H](O)COc1cccc(Nc2ncnc(N3CCN(c4ncc(Cc5ccccc5)cn4)CC3)n2)c1 [Compound 132]
100 to 1000 | 1.01 to 10 | O[C@H]1CCN(c2ccc(Nc3ncnc(N4CCN(c5ncc(Cc6ccccc6)cn5)CC4)n3)cc2)C1 [Compound 112]
10 to 100 | < 1 | CC(C)(O)Cn1cc(Nc2ncnc(N3CCN(c4ncc(Cc5ccccc5)cn4)CC3)n2)cn1 [Compound 62]
10 to 100 | 1.01 to 10 | c1ccc(Nc2cnc(N3CCN(c4ncnc(Nc5cnn(C[C@@H]6CNCCO6)c5)n4)CC3)nc2)cc1 [Compound 135]
100 to 1000 | 1.01 to 10 | OCCNc1ccc(Nc2ncnc(N3CCN(c4ncc(Cc5ccccc5)cn4)CC3)n2)cn1 [Compound 58]
10 to 100 | 1.01 to 10 | c1ccc(Cc2cnc(N3CCN(c4ncnc(Nc5ccc(OC6CNC6)cc5)n4)CC3)nc2)cc1 [Compound 77]
100 to 1000 | 1.01 to 10 | Fc1ccccc1Sc1cnc(N2CCN(c3ncnc(Nc4ccc(C5CNCCO5)cc4)n3)CC2)nc1 (stereo not drawn) [Compound 251]
100 to 1000 | 1.01 to 10 | Fc1cccc(Oc2cnc(N3CCN(c4ncnc(Nc5cnn(C[C@@H]6CNCCO6)c5)n4)CC3)nc2)c1 [Compound 204]
10 to 100 | 1.01 to 10 | Cc1c(Nc2ncnc(N3CCN(c4ncc(Sc5ccc(F)cc5)cn4)CC3)n2)cnn1C[C@H](C)O [Compound 151]
10 to 100 | < 1 | c1ccc(Cc2cnc(N3CCN(c4ncnc(Nc5cnn(C[C@H]6COCCN6)c5)n4)CC3)nc2)cc1 [Compound 125]
100 to 1000 | 1.01 to 10 | Cc1c(Nc2ncnc(N3CCN(c4ncc(Sc5ccccc5F)cn4)CC3)n2)cnn1C1COC1 [Compound 147]
10 to 100 | < 1 | C[C@H](O)Cn1cc(Nc2ncnc(N3CCN(c4ncc(Sc5ccccc5F)cn4)CC3)n2)cn1 [Compound 100]
10 to 100 | < 1 | c1ccc(Cc2cnc(N3CCN(c4ncnc(Nc5ccc6c(c5)CCCNC6)n4)CC3)nc2)cc1 [Compound 72]
10 to 100 | 1.01 to 10 | CC1(Cn2cc(Nc3ncnc(N4CCN(c5ncc(Cc6ccccc6)cn5)CC4)n3)cn2)COC1 [Compound 87]
